Experimental data reported in article PMC6105642, “A platform for discovery of functional cell-penetrating peptides for efficient multi-cargo intracellular delivery” (Scientific Reports, 2018).
pIC50: −log10 of the molar value. Square brackets hold non-standard residues; d marks the D form. Peptide text beside a SMILES is read from it.

Assays:
[1] = test system: T47D cells; experiment: ^DPMIα delivery cell viability assay; type: cell-based, human; details: 48 h incubation; presence of sera; resazurin reduction potential
Description: A variety of cell types and cargos confirmed the potency and versatility of Phylomer CPP delivery. Different functional assays applied readouts designed to directly quantify delivery of an established biologic cargo. […] CPP_^DPMIα synthetic peptides (Supplementary Table 7 and Fig. 3a, cargo 2) reduced viability of human breast tumor cells (T47D) in the presence of sera, indicating the successful delivery of ^DPMIα into the cells (Fig. 5a).
All cell viability studies were performed in the presence of FCS. Cells were seeded at 2.5–5 × 10^3 cells/well, depending on cell line, in 96-well plates (PAP assays: CHO-K1 at 3 × 10^3 cells/well; peptide cytotoxicity assays: CHO-K1 at 5 × 10^3 cells/well; Bouganin assay: CHO-K1 and CHO-K1/EGFR at 2.5 × 10^3 cells/well; ^DPMIα assays: T47D at 5 × 10^3 cells/well; Omomyc assays: all cell lines at 5 × 10^3 cells/well). In brief, adherent cells were allowed to adhere for 24 h prior to the addition of treatments whereas suspension cell lines were treated immediately following seeding. […] Membrane integrity was assessed by the release of LDH into the media via the CytoTox-ONE reagent (Promega). Metabolic activity was measured either by resazurin reduction potential using PrestoBlue (Life Technologies) or by ATP activity using CellTitre-Glo (Promega). […] IC50 values were calculated using Prism (version 7.0a, GraphPad).

[2] = test system: T47D (breast cancer); experiment: Omomyc cell viability assay (ATP activity); type: cell-based, human; details: 48 h
Excerpt: (§1) Next 1746c27 was used to deliver the Omomyc[45],[46] protein cargo. This well-characterized dominant-negative protein directly binds and inhibits the transcription factor MYC. A master regulator of critical cellular processes, MYC is an intracellular oncoprotein target deemed “undruggable” using conventional biological therapeutics. Treatment with recombinant 1746c27_Omomyc (Fig. 3a, cargo 4) induced a dose-dependent decrease in cell viability in MYC-dependent blood cancer cell lines and T47D cells in the presence of sera. […] The potency of 1746c27_Omomyc was greater than small molecule inhibitors of MYC, 10058-F4 and KJ-Pyr9 (Supplementary Fig. 8).
(§2) All cell viability studies were performed in the presence of FCS. […] Membrane integrity was assessed by the release of LDH into the media via the CytoTox-ONE reagent (Promega). Metabolic activity was measured either by resazurin reduction potential using PrestoBlue (Life Technologies) or by ATP activity using CellTitre-Glo (Promega). […] IC50 values were calculated using Prism (version 7.0a, GraphPad).

[3] = test system: CHO-K1 cells; experiment: Peptide cytotoxicity, cell viability by resazurin reduction; type: cell-based; details: CPP alone up to 50 µM, 24 h and 48 h, presence of sera
Description: To ensure that 1746 and 1746c27 are not innately cytotoxic, we assessed their effect on cell viability. CHO-K1 cells were treated with CPPs in the presence of sera at 24 h (Fig. 4a) and 48 h (Fig. 4b). The effects of CPPs on cellular membrane stability were assessed using a LDH enzymatic assay, measuring LDH release at 2 h (Fig. 4c) and 24 h (Fig. 4d) after peptide addition.
All cell viability studies were performed in the presence of FCS. Cells were seeded at 2.5–5 × 10^3 cells/well, depending on cell line, in 96-well plates (PAP assays: CHO-K1 at 3 × 10^3 cells/well; peptide cytotoxicity assays: CHO-K1 at 5 × 10^3 cells/well; Bouganin assay: CHO-K1 and CHO-K1/EGFR at 2.5 × 10^3 cells/well; ^DPMIα assays: T47D at 5 × 10^3 cells/well; Omomyc assays: all cell lines at 5 × 10^3 cells/well). In brief, adherent cells were allowed to adhere for 24 h prior to the addition of treatments whereas suspension cell lines were treated immediately following seeding. Following 2–48 h incubations with treatments, cell viability was measure by a variety of methods. Membrane integrity was assessed by the release of LDH into the media via the CytoTox-ONE reagent (Promega). Metabolic activity was measured either by resazurin reduction potential using PrestoBlue (Life Technologies) or by ATP activity using CellTitre-Glo (Promega). […] IC50 values were calculated using Prism (version 7.0a, GraphPad).

[4] = test system: AMO-1 (plasmacytoma); experiment: Omomyc cell viability assay (ATP activity); type: cell-based; details: 48 h
Excerpt: as §1, §2

[5] = test system: HL-60 (promyelocytic leukemia); experiment: Omomyc cell viability assay (ATP activity); type: cell-based; details: 48 h
Excerpt: as §1, §2

[6] = test system: C57BL/10ScSn^mdx mice; experiment: Exon skipping in vivo by RT-PCR and Western blot; design: species or system mouse; details: five IP injections over two weeks, 4 nmoles per dose; RT-PCR / immunoblot; diaphragm, tibialis anterior, heart
Description: Exon skipping in vivo was evaluated at the (a, c) RNA and (b) protein level in the Duchenne muscular dystrophy mouse disease model. RNA was extracted from tissues of C57BL/10ScSn^mdx mice treated with five intra-peritoneal injections of CPP_PMO cargo over two weeks at 4 nmoles per dose (injected volume increased with increased weight of the mice). Pip6, a traditional carrier CPP for peptide-oligonucleotide conjugates in the mdx disease model of DMD^9, was tested in vivo in parallel for comparison. All samples were loaded onto the gel using normalization by myosin densitometry, to enable a quantitative comparison.^10
Tissues were sectioned (6 µm thickness) before adding lysis buffer. Otherwise exon skipping assays and RT-PCR detection were performed following the same protocols used for detection of exon skipping in vitro in myoblasts cells (see Methods of main text).
Samples were vortexed for 10 sec, sonicated at a setting of 30/100 (Sonics sonicator) for 6 x 1 sec pulses, heated at 95 °C for 5 min and centrifuged at 14,000rpm on a Beckman microfuge for 4 min before loading. Total protein was quantitated by BCA assay (Pierce). Average total protein concentration was 2.3 µg/µl. […] Coomassie stained bands were analysed using Bio1D software and the results were used as a loading control to provide equal loading for the western gel that followed. […]

[7] = test system: C57BL/6J mice; experiment: Serum parameters of kidney and liver toxicity in mice; type: in vivo, mouse; details: 40 mg/kg/day IP for 7 days, n = 6
Description: To examine 1746c27 toxicity in vivo, a cohort of adult male C57BL/6J mice (n = 6) were treated with the CPP. Following approved standard preliminary toxicity testing guidelines (Food and Drug Administration, FDA, and European Medicines Agency, EMA), mice were injected intraperitoneally daily for 7 days with 40 mg/kg of 1746c27. After a further 8 days the mice were culled (on day 15) and serum was extracted and used to examine kidney and liver toxicity. Urea, creatinine, aspartate transaminase (AST) and alanine transaminase (ALT) concentrations were measured. […] ALT (p = 0.054) and creatinine (p = 0.01) levels were lower compared to untreated control mice, which supports the finding of minimal toxicity.
All mouse studies were approved by the Animal Ethics Committee of The University of Western Australia in accordance with the Australian Code of Practice for the Care and Use of Animals for Scientific Purposes (NH&MRC, 8th Edition, 2013). Studies were performed using adult male C57BL/6J mice weighing approximately 20 g. Mice were treated with 1746c27 (40 mg/kg/day intraperitoneally) for 7 days (day 1–7), followed by no treatment on days 8–15. On day 15, mice were anesthetized with intraperitoneal injection of pentobarbitone sodium (240 mg/kg), and their terminal blood collected. Serum was extracted and used to measure kidney and liver toxicity. Urea and creatinine concentration was assessed using QuantiChrom Urea and Creatinine assay kits, respectively (BioAssay Systems). Aspartate transaminase (AST) and alanine transaminase (ALT) concentration were measured using EnzyChrom Aspartate Transaminase and Alanine Transaminase assay kits, respectively (BioAssay Systems). All assays were performed as per manufacturer’s instructions, using a spectrophotometer (PowerWave XS).

Ac-PLKPKKPKTQEKKKKQPPKPKKPKTQEKKKKQPPKPKRGAS[dT][dN][dW][dY][dA][dN][dL][dE][dK][dL][dL][dR]-NH2 [1746_^DPMIα]
pIC50 [1]: 5.04

Ac-KKKKQPPKPKKPKTQEKKKKQPPKPKR-NH2 (N-terminus and C-terminus assumed) [1746c27]
effect on cell viability, in words [2]: no notable effect on cell viability | cytotoxic activity, cell viability [3]: no measurable cytotoxicity | effect on cell viability, in words [4]: no notable effect on cell viability | effect on cell viability, in words [5]: no notable effect on cell viability | exon 23 skipping in tissues, in words [6]: not detected | toxicity in vivo, in words [7]: minimal evidence of toxicity | ALT Mean ([7]; serum day 15): 59.73 U/L | AST Mean ([7]; serum day 15): 84.98 U/L | Creatinine Mean ([7]; serum day 15): 0.33 mg/dL | Urea Mean ([7]; serum day 15): 50.99 mg/dL

CC(=O)NCC(=O)N[C@@H](CCCNC(=N)N)C(=O)N[C@@H](CCCCN)C(=O)N[C@@H](CCCCN)C(=O)N[C@@H](CCCNC(=N)N)C(=O)N[C@@H](CCCNC(=N)N)C(=O)N[C@@H](CCC(N)=O)C(=O)N[C@@H](CCCNC(=N)N)C(=O)N[C@@H](CCCNC(=N)N)C(=O)N[C@@H](CCCNC(=N)N)C(=O)NCC(=O)N[C@@H](C)C(=O)N[C@@H](CO)C(=O)N[C@@H](C(=O)N[C@H](CC(N)=O)C(=O)N[C@H](Cc1c[nH]c2ccccc12)C(=O)N[C@H](Cc1ccc(O)cc1)C(=O)N[C@H](C)C(=O)N[C@H](CC(N)=O)C(=O)N[C@H](CC(C)C)C(=O)N[C@H](CCC(=O)O)C(=O)N[C@H](CCCCN)C(=O)N[C@H](CC(C)C)C(=O)N[C@H](CC(C)C)C(=O)N[C@H](CCCNC(=N)N)C(N)=O)[C@H](C)O [TAT_^DPMIα, reference compound] (Ac-GRKKRRQRRRGAS[dT][dN][dW][dY][dA][dN][dL][dE][dK][dL][dL][dR]-NH2)
pIC50 [1]: 4.44
